Data reported in ChEMBL document CHEMBL1133977, “Robinlin: a novel bioactive homo-monoterpene from Robinia pseudoacacia L. (Fabaceae)” (Bioorg Med Chem Lett, 2001).
Values after ≈ are worked out from the molar mass of the structure shown.

Tests used:
A498 = test: In vitro cytotoxic activity against A-498 (human kidney carcinoma) cell line; assay type: functional; settings: read-out: ED50 (the source's name)
A549 = test: In vitro cytotoxic activity against A-549 (human lung carcinoma) cell line; assay type: functional; settings: read-out: ED50 (the source's name)
HT-29 = test: In vitro cytotoxic activity against HT-29 (human colon adenocarcinoma) cell line; assay type: functional; settings: read-out: ED50 (the source's name)
MCF7 = test: In vitro cytotoxic activity against MCF-7 (human breast carcinoma) cell line; assay type: functional; settings: read-out: ED50 (the source's name)
MIA PaCa-2 = test: In vitro cytotoxic activity against PACA-2 (human pancreatic carcinoma) cell line; assay type: functional; settings: read-out: ED50 (the source's name)
PC-3 = test: In vitro cytotoxic activity against PC-3 (human prostate adenocarcinoma) cell line; assay type: functional; settings: read-out: ED50 (the source's name)
[1] = Activity in brine shrimp lethality test (BST); assay type: organism-based; settings: artemia, in vivo

| SMILES | EC50 (A498) | EC50 (A549) | EC50 (HT-29) | EC50 (MCF7) | EC50 (MIA PaCa-2) | EC50 (PC-3) | LC50 [1] |
| --- | --- | --- | --- | --- | --- | --- | --- |
| CC1=C(CCO)C(C)(C)C[C@@H](O)C1=O | > 100000 ng/mL | 47000 ng/mL (≈ 237 µM) | 52000 ng/mL (≈ 262 µM) | 46000 ng/mL (≈ 232 µM) | > 100000 ng/mL | > 100000 ng/mL | 4900 ng/mL (≈ 24.7 µM) |
| COc1cccc2c1C(=O)c1c(O)c3c(c(O)c1C2=O)C[C@@](O)(C(=O)CO)C[C@@H]3O[C@H]1C[C@H](N)[C@H](O)[C@H](C)O1 [DOXORUBICIN] | 0.46 ng/mL (≈ 0.000846 µM) | 0.21 ng/mL (≈ 0.000386 µM) | 1.3 ng/mL (≈ 0.00239 µM) | 5.8 ng/mL (≈ 0.0107 µM) | 0.18 ng/mL (≈ 0.000331 µM) | 0.24 ng/mL (≈ 0.000442 µM) | – |
